The structures appear in SMILES notation. Bounds are passed on as bounds.

For the experiment, the target named is T1, N-formyl peptide receptor 2 (Homo sapiens, UniProt P25090).
T1 sequence (P25090 whole entry): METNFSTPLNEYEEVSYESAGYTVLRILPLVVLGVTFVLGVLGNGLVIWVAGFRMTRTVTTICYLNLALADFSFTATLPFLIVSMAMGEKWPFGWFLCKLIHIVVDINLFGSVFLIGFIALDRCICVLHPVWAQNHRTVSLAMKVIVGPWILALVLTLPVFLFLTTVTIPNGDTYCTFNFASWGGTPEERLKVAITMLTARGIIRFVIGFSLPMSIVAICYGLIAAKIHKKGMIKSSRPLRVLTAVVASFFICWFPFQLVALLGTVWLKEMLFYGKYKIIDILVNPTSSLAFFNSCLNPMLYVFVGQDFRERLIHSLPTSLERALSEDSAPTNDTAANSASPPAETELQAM
Kind of experiment: concentration-dependent FPRL1 ligand displacement – cell-based, FPR counter-screen, fluorescent ligand, dose response (AID 520). (In general: The purpose of a counterscreen is to sort out artefacts and off-target activity.)
A word on the IC50: it is the midpoint of a concentration-inhibition curve. Higher therefore signals weaker potency. `COc1ccc(-c2cc(C(F)(F)F)nc(N3CCCCC3)n2)cc1OC` [4-(3,4-dimethoxyphenyl)-2-(1-piperidinyl)-6-(trifluoromethyl)pyrimidine] showed an IC50 of over 66.7 µM.
Still for that read-out and setting: the result for `Cc1cc(SCC(N)=O)nc(SCC(=O)c2ccccc2)n1` [2-(6-methyl-2-phenacylsulfanylpyrimidin-4-yl)sulfanylacetamide] reads over 66.7 µM.
The Ki is the dissociation constant of the complex between target and ligand, obtained from inhibition or displacement. `COCCCN1C(=O)C(=O)C(C(=O)c2ccc3c(c2)CC(C)O3)C1c1cccnc1` (stereo unspecified) [(4E)-1-(3-methoxypropyl)-4-[(2-methyl-2,3-dihydro-1-benzofuran-5-yl)-oxidanyl-methylidene]-5-pyridin-3-yl-pyrrolidine-2,3-dione] returned an IC50 of over 66.7 µM and an inhibition constant (Ki) of over 40.3 µM.
In the same order, the values of `CCN(CC)c1ccc(C=NC(C#N)C(=N)C#N)cc1` (stereo unspecified) [SMR000023871] are over 66.7 µM and over 40.3 µM.
For `CCCOc1ccc(C2C(C(=O)c3ccco3)C(=O)C(=O)N2CCCn2ccnc2)cc1` (stereo unspecified) [3-(furan-2-carbonyl)-4-hydroxy-1-(3-imidazol-1-ylpropyl)-2-(4-propoxyphenyl)-2H-pyrrol-5-one], the IC50 is over 66.7 µM and the Ki was over 40.3 µM.
The compound `CCC(Sc1nc2c(c(=O)[nH]1)CCC2)C(=O)Nc1cccc(OC)c1` (stereo unspecified) [SMR000028729] came in with an IC50 of over 66.7 µM.
Still for that read-out and setting: in the case of `COc1ccc(-c2nc(N3CCCC3)[nH]c(=O)c2C#N)cc1` [6-(4-methoxyphenyl)-4-oxidanylidene-2-pyrrolidin-1-yl-1H-pyrimidine-5-carbonitrile] it was over 66.7 µM.
On to `Cc1ccc(NC(=O)C2C(=O)N(CCO)C3(C)CC2c2ccccc2O3)cc1` (stereo unspecified) [SMR000015827], for which the IC50 is over 66.7 µM.
In turn, `COc1ccc(C2C(C(=O)c3ccco3)C(=O)C(=O)N2CCc2ccccc2)cc1OC` (stereo unspecified) [2-(3,4-dimethoxyphenyl)-3-(furan-2-carbonyl)-4-hydroxy-1-(2-phenylethyl)-2H-pyrrol-5-one] returned an IC50 of over 66.7 µM and a Ki of over 40.3 µM.
Compound `COc1ccccc1C1C(C(=O)c2ccccc2)C(=O)C(=O)N1CC(C)O` (stereo unspecified) [(4Z)-4-[hydroxy(phenyl)methylene]-1-(2-hydroxypropyl)-5-(2-methoxyphenyl)pyrrolidine-2,3-quinone] gave an IC50 of over 66.7 µM and an inhibition constant Ki of over 40.3 µM.
Compound `CCCCn1c(NC(C)=O)c(C#N)c2nc3ccccc3nc21` [MLS000079917] had an IC50 of over 66.7 µM.
Take `COC(=O)c1ccc(C2C(C(=O)c3ccc(OC)cc3)C(=O)C(=O)N2Cc2ccco2)cc1` (stereo unspecified) [4-[(3Z)-1-(2-furanylmethyl)-3-[hydroxy-(4-methoxyphenyl)methylidene]-4,5-dioxo-2-pyrrolidinyl]benzoic acid methyl ester]: the IC50 is over 66.7 µM and the Ki was over 40.3 µM.
On to `COc1ccc(C(=O)C2C(=O)C(=O)N(CCN3CCOCC3)C2c2ccc(C)cc2)cc1` (stereo unspecified) [(4Z)-4-[(4-methoxyphenyl)-oxidanyl-methylidene]-5-(4-methylphenyl)-1-(2-morpholin-4-ylethyl)pyrrolidine-2,3-dione], for which the IC50 is over 66.7 µM and the Ki was over 40.3 µM.
In turn, `O=C(c1ccc(Cl)cc1)N(Cc1cccs1)C1CCS(=O)(=O)C1` (stereo unspecified) [4-chloro-N-(1,1-diketothiolan-3-yl)-N-(2-thenyl)benzamide] showed a concentration for half-maximal inhibition (IC50) of over 66.7 µM.
Compound `CCc1nn2c(=O)cc(CSc3nc4sc5c(c4c(=O)n3C)CCCC5)nc2s1` [2-[(2-ethyl-5-keto-[1,3,4]thiadiazolo[3,2-a]pyrimidin-7-yl)methylthio]-3-methyl-5,6,7,8-tetrahydrobenzothiopheno[2,3-d]pyrimidin-4-one] had an IC50 of over 66.7 µM.
`Cc1oc2cc(O)cc(O)c2c(=O)c1-c1ccc2c(c1)OCCCO2` [3-(3,4-dihydro-2H-1,5-benzodioxepin-7-yl)-2-methyl-5,7-bis(oxidanyl)chromen-4-one]: the IC50 is over 66.7 µM.
Consider `O=C(NCc1cccnc1)C1c2ccccc2C(=O)N1C1CCCCCCC1` (stereo unspecified) [2-cyclooctyl-3-keto-N-(3-pyridylmethyl)isoindoline-1-carboxamide], for which the IC50 is over 66.7 µM.
For the compound `Cc1ccc(NC(=O)C2CCCN2S(=O)(=O)c2cccc3cccnc23)cc1F` (stereo unspecified) [MLS000119092], the IC50 is over 66.7 µM.
The compound `CCOc1cc(C2C(C(=O)c3ccc(C)o3)C(=O)C(=O)N2CCc2ccccc2)ccc1O` (stereo unspecified) [2-(3-ethoxy-4-hydroxyphenyl)-4-hydroxy-3-(5-methylfuran-2-carbonyl)-1-(2-phenylethyl)-2H-pyrrol-5-one] had an IC50 of over 66.7 µM and a Ki of over 40.3 µM.
`CCc1ccccc1NC(=O)C(C#N)Cc1cccnc1` (stereo unspecified) [2-Cyano-N-(2-ethyl-phenyl)-2-pyridin-3-ylmethyl-acetamide] displayed an IC50 of over 66.7 µM.
For `O=C(O)C1CCCCC1C(=O)Nc1ccccc1Cl` (stereo unspecified) [2-[(2-chloroanilino)-oxomethyl]-1-cyclohexanecarboxylic acid], the half-inhibitory concentration (IC50) is over 66.7 µM.
`COc1ccc(Cl)cc1-n1c(=S)sc2c(O)nc(SCC(=O)NCC3CCCO3)nc21` (stereo unspecified) [2-[[3-(5-chloranyl-2-methoxy-phenyl)-7-oxidanylidene-2-sulfanylidene-4H-[1,3]thiazolo[4,5-d]pyrimidin-5-yl]sulfanyl]-N-(oxolan-2-ylmethyl)ethanamide] registered an IC50 of over 66.7 µM.
As to `O=C(NC1CCCCC1)c1sc(=S)n2c1[nH]c(=O)c1ccccc12` [SMR000030293], the IC50 is over 66.7 µM.
For the compound `COc1cc(C2C(C(=O)c3ccc(C)o3)C(=O)C(=O)N2Cc2cccnc2)ccc1O` (stereo unspecified) [2-(3-methoxy-4-oxidanyl-phenyl)-3-(5-methylfuran-2-yl)carbonyl-4-oxidanyl-1-(pyridin-3-ylmethyl)-2H-pyrrol-5-one], the IC50 is over 66.7 µM and the Ki was over 40.3 µM.
As to `CCOc1ccc(C2C(C(=O)c3ccco3)C(=O)C(=O)N2Cc2cccnc2)cc1` (stereo unspecified) [2-(4-ethoxyphenyl)-3-(furan-2-carbonyl)-4-hydroxy-1-(pyridin-3-ylmethyl)-2H-pyrrol-5-one], the half-inhibitory concentration (IC50) was over 66.7 µM and the Ki was over 40.3 µM.
`CCOc1cc(C2C(C(=O)c3ccco3)C(=O)C(=O)N2CCc2ccccc2)ccc1O` (stereo unspecified) [2-(3-ethoxy-4-hydroxyphenyl)-3-(furan-2-carbonyl)-4-hydroxy-1-(2-phenylethyl)-2H-pyrrol-5-one] yielded a half-inhibitory concentration (IC50) of over 66.7 µM and a Ki of over 40.3 µM.
Turning to `O=C1Nc2ccccc2/C1=C1/SC(=S)N(CC2CCCO2)C1=O` (stereo unspecified) [(5Z)-5-(2-ketoindolin-3-ylidene)-3-(tetrahydrofurfuryl)-2-thioxo-thiazolidin-4-one], the IC50 is over 66.7 µM and the Ki was over 40.3 µM.
In turn, `O=C(NC1CCCC1)C1CC1c1ccccc1` (stereo unspecified) [MLS000061073] yielded a half-inhibitory concentration (IC50) of over 66.7 µM.
Consider `COc1cccc(C(=O)C2C(=O)C(=O)N(Cc3cccnc3)C2c2ccco2)c1` (stereo unspecified) [(4Z)-5-(2-furanyl)-4-[hydroxy-(3-methoxyphenyl)methylidene]-1-(3-pyridinylmethyl)pyrrolidine-2,3-dione], for which the IC50 was over 66.7 µM and the Ki was over 40.3 µM.
`CCOc1ccccc1Oc1c(C)oc2cc(OC(=O)c3ccco3)ccc2c1=O` [2-furancarboxylic acid [3-(2-ethoxyphenoxy)-2-methyl-4-oxo-1-benzopyran-7-yl] ester] came in with an IC50 of over 66.7 µM.
Same read-out and setting: in the case of `Cc1[nH]n2c(=O)c3c(nc2c1-c1ccc(Cl)cc1)CCC3` [MLS000034815] it was over 66.7 µM.
`COc1ccccc1Oc1c(C)oc2cc(OC(=O)c3ccco3)ccc2c1=O` [2-furancarboxylic acid [3-(2-methoxyphenoxy)-2-methyl-4-oxo-1-benzopyran-7-yl] ester] showed an IC50 of over 66.7 µM.
On to `COCCN1Cc2cccc(C(=O)NCc3ccc4c(c3)OCO4)c2C1=O` [N-(1,3-benzodioxol-5-ylmethyl)-2-(2-methoxyethyl)-3-oxoisoindoline-4-carboxamide], for which the IC50 was over 66.7 µM.
The compound `CCOc1ccc(C2C(C(=O)c3ccco3)C(=O)C(=O)N2CCCn2ccnc2)cc1` (stereo unspecified) [2-(4-ethoxyphenyl)-3-(furan-2-carbonyl)-4-hydroxy-1-(3-imidazol-1-ylpropyl)-2H-pyrrol-5-one] came in with an IC50 of over 66.7 µM and a Ki of over 40.3 µM.
`COc1cc(C2C(C(=O)c3ccco3)C(=O)C(=O)N2c2cc(C)on2)cc(Br)c1O` (stereo unspecified) [2-(3-bromanyl-5-methoxy-4-oxidanyl-phenyl)-3-(furan-2-ylcarbonyl)-1-(5-methyl-1,2-oxazol-3-yl)-4-oxidanyl-2H-pyrrol-5-one] registered an IC50 of over 66.7 µM and a Ki of over 40.3 µM.
Consider `Cc1c(C(=O)NC2CCCc3ccccc32)oc2ccc(S(=O)(=O)N3CCOCC3)cc12` (stereo unspecified) [3-methyl-5-(4-morpholinylsulfonyl)-N-(1,2,3,4-tetrahydronaphthalen-1-yl)-2-benzofurancarboxamide], for which the IC50 is over 66.7 µM.
On to `CC(C)OC(=O)c1nnn(-c2nonc2N)c1CN1CCc2ccccc2C1` [1-(4-amino-1,2,5-oxadiazol-3-yl)-5-(3,4-dihydro-1H-isoquinolin-2-ylmethyl)-4-triazolecarboxylic acid propan-2-yl ester], for which the IC50 is over 66.7 µM.
Compound `COc1ccc(-c2nnc(Nc3nc4c(OC)cccc4s3)o2)c(OC)c1` [5-(2,4-dimethoxyphenyl)-N-(4-methoxy-1,3-benzothiazol-2-yl)-1,3,4-oxadiazol-2-amine] gave an IC50 of over 66.7 µM.
`COCCCN1C(=O)C(=O)C(C(=O)c2ccco2)C1c1cccc(Br)c1` (stereo unspecified) [2-(3-bromophenyl)-3-(furan-2-carbonyl)-4-hydroxy-1-(3-methoxypropyl)-2H-pyrrol-5-one] returned an IC50 of over 66.7 µM and a Ki of over 40.3 µM.
Regarding `COc1cccc(-c2nc(CS(=O)(=O)CC(=O)NCCC(C)C)c(C)o2)c1` [2-[[2-(3-methoxyphenyl)-5-methyl-1,3-oxazol-4-yl]methylsulfonyl]-N-(3-methylbutyl)acetamide], the IC50 is over 66.7 µM.
